Measurements published in patent publication US20100021434A1, “Isolated Oligodendrocyte-Like Cells and Populations Comprising Same for the Treatment of CNS Diseases” (Ramot At Tel Aviv University Ltd., priority 2005, published 2010).

Experiments:
Assay type in all cases: cell-based
mouse MSCs [1] = test: Oligodendrocyte-like differentiation of mouse MSCs, immunostaining (A2B5, O4, MBP); conditions: for Fraction of A2B5+ cells: mouse MSCs, cytokines added to growth medium; for expression of the oligodendrocyte progenitor marker A2B5 (FIGS. 4A-C): MSCs of C57-EGFP mice, NT-3 50 ng/ml, IL-1β 20 ng/ml
Procedure: (§1) Oligodendrocyte-like Differentiation of mouse MSCs: 3.2*10^3 mMSCs per well from transgenic EGFP+ C57/b1 mice (that have constitutive expression of EGFP in all their cells), were cultured in growth medium (15% FCS, 5% HS, 2 mM L-glutamine, 0.001% β-mercaptoethanol, 10 ng/ml epidermal growth factor, 100 U/ml Penicillin, 100 μg/ml Streptomycin and 12.5 U/ml Nystatin in α-DMEM), and then transferred to mediums containing different cytokines, hormones and growth factors (See table 2 hereinbelow) that play roles in oligodendrocyte lineage differentiation process, to examine the effects of those substances on the cells. The cells were incubated in the differentiation mediums for 48 hours or 6 days, and then were fixed in 4% PFA for 5 minutes in RT and 20 minutes in 4° C. and photographed for morphological changes.
The fixed cells were then blocked in 5% goat serum (GS) stained with mouse anti-A2B5 antibodies (1:200; Chemicon) overnight, 4° C., washed twice in 5% GS, and appropriate goat anti mouse second Cy3 antibody (1:500; Jackson labs) for one hour, RT, in the dark. The cells were then examined for fluorescence and photographed by fluorescence Olympus IX70-S8F2 microscope with fluorescent light source and a U-MNU filter cube (Olympus). In all immuno-staining experiments, a sample was also stained with IInd antibodies only, as control, to detect any non-specific staining.

mouse MSCs [2] = test: FACS analysis of differentiated mouse cells (A2B5, O4); conditions: EGFP mMSCs, IL-1β 20 ng/ml in growth medium, 4 days
Procedure: FIGS. 5A-D are graphs and tables illustrating an analysis of mouse MSCs following differentiation protocol in vitro. MSCs from the bone marrow of transgenic EGFP-expressing transgenic mice (A) were cultured in differentiation medium composed of standard growth medium supplemented by IL-1β (20 ng/ml), or in standard growth medium only (control; B) for 4 days. The cells were then stained by antibodies against oligodendrocyte progenitor marker A2B5, and analyzed by flow cytometry (A2B5 staining seen as black lines). Nonspecific staining by second antibody only was used as control (nonspecific staining seen as red lines), and quantitative measurements were made from the cross points of the two lines. Quantitative measurements (D) were made either on the total population (first row), or on the population with very small-sized events omitted (see gated area in A; second row in D).
FACS analysis of differentiated mouse cells: MSCs were harvested from the tissue culture flasks following […] in differentiation medium (See Table 3, in the Results, #4), alongside undifferentiated MSCs, and centrifuged at 1000×rpm for 10 minutes at room temperature. […] After two washes in flow buffer, the cells were resuspended in 0.5 ml PBS and were studied by a fluorescence activated cell sorter (FACS) Calibur™ using an argon ion laser, adjusted to an excitation wavelength of 488 nm (Becton Dickinson). […]

mouse MSCs [3] = test: Oligodendrocyte-like differentiation of mouse MSCs, morphology; conditions: MSCs of C57-EGFP transgenic mice, growth medium plus cytokines, 6 days
Procedure: as §1

Molecule | Fraction of A2B5+ cells (mouse MSCs [1]; 48 hours) [%] | percentage A2B5+ cells (FACS analysis) (mouse MSCs [2]) | cell morphology (FIGS. 3A-F) (mouse MSCs [3]) | expression of the oligodendrocyte progenitor marker A2B5 (FIGS. 4A-C) (mouse MSCs [1]; 6 days) | Fraction of A2B5+ cells (mouse MSCs [1]; 6 days) [%]
CC1=C(/C=C/C(C)=C/C=C/C(C)=C/C(=O)O)C(C)(C)CCC1 [Retinoic acid, reference compound] | 0 | – | – | – | –
Interleukin-1β: interleukin 1 beta, cytokine from PeproTech added to growth medium | 1 | changes. Low | did not alter drastically | acquiring expression | 3.8
Neurotrophin-3: neurotrophin 3, human polypeptide or mammalian homologue, from PeproTech (protein, UniProt P20783 139-257, looked up, Neurotrophin-3, neurotrophin 3, human polypeptide or mammalian homologue, from PeproTech) Neurotrophin-3: YAEHKSHRGEYSVCDSESLWVTDKSSAIDIRGHQVTVLGEIKTGNSPVKQYFYETRCKEARPVKNGCRGIDDKHWNSQCKTSQTYVRALTSENNKLVGWRWIRIDTSCVCALSRKIGRT | 1.9 | – | did not alter drastically | acquiring expression | 2.7
